Source: EP1507508B1, “COMPOSITION CONTAINING A PEPTIDE AND A PIGMENT AND THE USE THEREOF IN DARKENING THE SKIN” (JOHNSON & JOHNSON CONSUMER COMPANIES, INC., priority 2002, dated 2003)

System: Dark skinned Yucatan microswine
Assay: Induced pigmentation in vivo, topical treatment, Fontana-Mason stained skin sections scored for pigment deposition
Conditions: average of all sites of responsive swine; topical twice a day, five days/week, eight or nine weeks; positive controls 1% (W/V), pigments 1% or 5% (W/V), peptides 250 µM or 500µM, combinations with pigments at 1%(W/V)
Protocol: Compositions were tested for their ability to induce in vivo pigmentation in skin cells in the following experiment. Dark skinned Yucatan microswine (Charles River, Portland, ME) were housed in appropriately sized cages in an environmentally controlled room with a 12-hour light - 12-hour dark photoperiod and supplied with food and water ad libitum. Animal care was based on the "Guide for the Care and Use of Laboratory Animals", NIH Publication No. 85-23. Twenty µl of test peptides were applied topically, twice a day, five days/week, for eight or nine weeks, on the dorsum of the swine. Treatments of individual swine were always arranged in a head to tail order on one side, and in a tail to head order on the other side of the animal. Biopsies were taken using standard techniques.
F&M staining identifies silver nitrate reducing molecules. In skin, this non-specific stain identifies primarily melanin. At least three sections per biopsy were processed. Each experiment was repeated at least three times.
Swine were treated with either: the known skin darkening agent forskolin (Sigma) or with a Coleus forskoli extract (ATZ Naturals, Englewood Cliffs, NJ) which contains forskolin, as a positive control at 1% (W/V); pigments at 1% or 5% (W/V); peptides at 250 µM or 500µM; and combinations of such peptides at 250 µM or 500µM with pigments at 1%(W/V). […]

C=C[C@@]1(C)CC(=O)[C@]2(O)[C@@]3(C)[C@@H](O)CCC(C)(C)[C@@H]3[C@H](O)[C@H](OC(C)=O)[C@@]2(C)O1 [Forskolin]
Score: 1

H2-Val-Gly-Val-Ala-Pro-Gly-NH2 (H-VGVAPG-NH2) [Peptide 1]
Score: 1
